Results published in patent US10618905B2, “Pyrimidine-based compounds for the treatment of cancer” (G1 Therapeutics, Inc., priority 2016, dated 2020).

Columns and labels:
Assay type in all cases: biochemical
CDK2/Cyclin E = CDK2/Cyclin E (Homo sapiens, UniProt P24941); test: CDK2/CyclinE kinase assay (Nanosyn, Caliper microfluidic); settings: 12-point dose-response, ATP at Km (100 μM), 0.28 nM enzyme, 1 hr
Method: (§1) Selected compounds disclosed herein were tested in CDK4/cyclinD1, CDK2/CycA and CDK2/cyclinE kinase assays by Nanosyn (Santa Clara, Calif.) to determine their inhibitory effect on these CDKs. The assays were performed using microfluidic kinase detection technology (Caliper Assay Platform). The compounds were tested in 12-point dose-response format in singlicate at Km for ATP. Phosphoacceptor substrate peptide concentration used was 1 μM for all assays and Staurosporine was used as the reference compound for all assays. Specifics of each assay are as described below:
CDK2/CyclinE: Enzyme concentration: 0.28 nM; ATP concentration: 100 μM; Incubation time: 1 hr.

CDK2/Cyclin A = CDK2/Cyclin A (Homo sapiens, UniProt P24941); test: CDK2/CyclinA kinase assay (Nanosyn, Caliper microfluidic); settings: 12-point dose-response, ATP at Km (50 μM), 0.2 nM enzyme, 3 hr
Method: as §1
CDK2/CyclinA: Enzyme concentration: 0.2 nM; ATP concentration: 50 μM; Incubation time: 3 hr.

CDK6/Cyclin D3 = CDK6/Cyclin D3 (Homo sapiens, UniProt Q00534); test: CDK6/Cyclin D3 kinase assay
Sequence of CDK6/Cyclin D3 (Q00534 whole entry): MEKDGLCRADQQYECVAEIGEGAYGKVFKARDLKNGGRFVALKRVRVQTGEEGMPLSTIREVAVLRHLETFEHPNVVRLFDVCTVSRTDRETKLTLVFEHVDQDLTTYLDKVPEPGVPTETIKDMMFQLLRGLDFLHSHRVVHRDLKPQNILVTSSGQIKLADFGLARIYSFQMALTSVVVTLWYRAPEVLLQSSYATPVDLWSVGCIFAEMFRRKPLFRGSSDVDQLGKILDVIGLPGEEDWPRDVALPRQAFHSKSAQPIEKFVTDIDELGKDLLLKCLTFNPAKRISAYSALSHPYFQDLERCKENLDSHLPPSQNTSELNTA
Sequence of CDK6/Cyclin D3 (P30281 whole entry partner): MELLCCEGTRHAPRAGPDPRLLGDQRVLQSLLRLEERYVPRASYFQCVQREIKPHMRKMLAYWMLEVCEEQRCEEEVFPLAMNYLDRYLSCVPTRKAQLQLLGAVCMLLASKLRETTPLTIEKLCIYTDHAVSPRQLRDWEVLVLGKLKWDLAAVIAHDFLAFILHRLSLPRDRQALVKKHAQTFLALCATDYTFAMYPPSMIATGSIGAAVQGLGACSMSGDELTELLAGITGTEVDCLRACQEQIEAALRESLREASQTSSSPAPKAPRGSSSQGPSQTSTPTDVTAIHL
Method: [The procedure below names another target; the source lists this target under the same test.] as §1, with “assays.” for “assays. Specifics of each assay are as described below:”

CDK9/Cyclin T = CDK9/Cyclin T (Homo sapiens, UniProt P50750); test: CDK9/Cyclin T kinase assay
Sequence of CDK9/Cyclin T (P50750 whole entry): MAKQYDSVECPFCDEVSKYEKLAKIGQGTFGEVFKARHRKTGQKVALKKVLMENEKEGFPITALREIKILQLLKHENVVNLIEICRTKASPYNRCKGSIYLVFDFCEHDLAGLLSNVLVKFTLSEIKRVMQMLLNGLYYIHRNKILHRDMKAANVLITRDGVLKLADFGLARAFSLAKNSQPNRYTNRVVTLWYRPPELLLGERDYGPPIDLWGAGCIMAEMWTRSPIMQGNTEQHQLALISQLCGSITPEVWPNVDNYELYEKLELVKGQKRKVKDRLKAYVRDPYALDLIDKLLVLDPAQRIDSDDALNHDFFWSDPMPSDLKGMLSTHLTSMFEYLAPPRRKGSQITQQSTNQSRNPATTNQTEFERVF
Sequence of CDK9/Cyclin T (O60563 whole entry partner): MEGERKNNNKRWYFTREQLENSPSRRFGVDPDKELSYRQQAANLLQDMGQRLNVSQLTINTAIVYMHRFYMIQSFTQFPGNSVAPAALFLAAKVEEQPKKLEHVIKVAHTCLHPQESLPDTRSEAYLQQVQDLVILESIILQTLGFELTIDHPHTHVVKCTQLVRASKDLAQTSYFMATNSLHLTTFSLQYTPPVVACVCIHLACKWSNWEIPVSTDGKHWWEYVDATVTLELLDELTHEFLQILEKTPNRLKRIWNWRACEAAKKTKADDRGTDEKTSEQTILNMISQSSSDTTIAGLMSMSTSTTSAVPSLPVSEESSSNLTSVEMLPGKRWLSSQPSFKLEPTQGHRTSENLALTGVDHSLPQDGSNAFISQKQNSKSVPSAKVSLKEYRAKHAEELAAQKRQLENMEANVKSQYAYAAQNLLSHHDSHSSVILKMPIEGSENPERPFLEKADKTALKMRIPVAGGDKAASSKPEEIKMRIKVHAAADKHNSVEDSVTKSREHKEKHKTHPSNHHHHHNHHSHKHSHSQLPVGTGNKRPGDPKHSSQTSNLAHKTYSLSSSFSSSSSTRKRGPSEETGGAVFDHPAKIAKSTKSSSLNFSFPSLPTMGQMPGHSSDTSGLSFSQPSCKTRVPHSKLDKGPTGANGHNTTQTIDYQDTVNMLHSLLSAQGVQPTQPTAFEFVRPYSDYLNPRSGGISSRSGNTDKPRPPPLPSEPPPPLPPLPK

CDK4/Cyclin D1 = CDK4/Cyclin D1 (Homo sapiens, UniProt P11802); test: CDK4/CyclinD1 kinase assay (Nanosyn, Caliper microfluidic); settings: 12-point dose-response, ATP at Km (200 μM), 1 nM enzyme, 10 hr
Sequence of CDK4/Cyclin D1 (P11802 whole entry): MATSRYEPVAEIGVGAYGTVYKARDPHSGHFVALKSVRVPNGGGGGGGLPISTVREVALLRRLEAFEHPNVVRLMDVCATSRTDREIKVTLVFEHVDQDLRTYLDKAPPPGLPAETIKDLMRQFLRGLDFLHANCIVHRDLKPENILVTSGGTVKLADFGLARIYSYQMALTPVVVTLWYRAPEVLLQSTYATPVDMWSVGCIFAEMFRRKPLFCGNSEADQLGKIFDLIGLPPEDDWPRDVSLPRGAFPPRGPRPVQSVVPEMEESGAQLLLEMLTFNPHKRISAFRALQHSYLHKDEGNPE
Sequence of CDK4/Cyclin D1 (P24385 whole entry partner): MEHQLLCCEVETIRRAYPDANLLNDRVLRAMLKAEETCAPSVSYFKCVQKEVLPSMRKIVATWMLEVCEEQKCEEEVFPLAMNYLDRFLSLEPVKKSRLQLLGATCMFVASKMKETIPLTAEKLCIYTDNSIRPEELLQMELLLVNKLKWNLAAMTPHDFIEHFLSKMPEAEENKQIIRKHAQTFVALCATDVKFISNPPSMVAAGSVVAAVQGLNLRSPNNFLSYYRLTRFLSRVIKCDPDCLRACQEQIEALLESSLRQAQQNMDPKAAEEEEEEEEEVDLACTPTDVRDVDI
Method: as §1
CDK4/CyclinD1: Enzyme concentration: 1 nM; ATP concentration: 200 μM; Incubation time: 10 hr.

| SMILES | IC50 (CDK2/Cyclin E) [µM] | IC50 (CDK2/Cyclin A) [µM] | IC50 (CDK6/Cyclin D3) [µM] | IC50 (CDK9/Cyclin T) [µM] | IC50 (CDK4/Cyclin D1) [µM] |
| --- | --- | --- | --- | --- | --- |
| CN1CCN(c2ccc(Nc3ncc4cc5n(c4n3)C3(CCCCC3)CN=C5)nc2)CC1 [Compound 1, N-(5-(4-methylpiperazin-1-yl)pyridin-2-yl)-8′H-spiro[cyclohexane-1,9′-pyrazino[1′,2′:1,5]pyrrolo[2,3-d]pyrimidin]-2′-amine] | 0.061 | 0.187 | 0.003 | 0.095 | 0.001 |
| CO[C@H]1CC[C@]2(CC1)CN=Cc1cc3cnc(Nc4ccc(N5CCN(C)CC5)cn4)nc3n12 [Compound 12, (1R,4R)-4-methoxy-N-(5-(4-methylpiperazin-1-yl)pyridin-2-yl)-8′H-spiro[cyclohexane-1,9′-pyrazino[1′,2′:1,5]pyrrolo[2,3-d]pyrimidin]-2′-amine] | 7 | 10 | 0.1 | 1 | 0.04 |
| CN1CCN(c2ccc(Nc3ncc4cc5n(c4n3)C3(CCOCC3)CN=C5)nc2)CC1 [Compound 10, N-(5-(4-methylpiperazin-1-yl)pyridin-2-yl)-2,3,5,6-tetrahydro-8′H-spiro[pyran-4,9′-pyrazino[1′,2′: 1,5]pyrrolo[2,3-d]pyrimidin]-2′-amine] | 5 | 7 | 0.07 | 2 | 0.04 |
| CN1CCN(c2ccc(Nc3ncc4cc5n(c4n3)C3(CCCCC3)CN=C5NCc3ccccc3)nc2)CC1 [Compound 5, N6′-benzyl-N2′-(5-(4-methylpiperazin-1-yl)pyridin-2-yl)-8′H-spiro[cyclohexane-1,9′-pyrazino[1′,2′: 1,5]pyrrolo[2,3-d]pyrimidine]-2′,6′-diamine] | > 100 | 70.7 | 0.39 | 11.2 | 0.16 |
| CN1CCN(c2ccc(Nc3ncc4cc5n(c4n3)C3(CCCCC3)CNC5)nc2)CC1 [Compound 2, N-(5-(4-methylpiperazin-1-yl)pyridin-2-yl)-7′,8′-dihydro-6′H-spiro[cyclohexane-1,9′-pyrazino[1′,2′: 1,5]pyrrolo[2,3-d]pyrimidin]-2′-amine] | 5.75 | 12.9 | 0.09 | 4.47 | 0.029 |
| CC1=NCC2(CCCCC2)n2c1cc1cnc(Nc3ccc(N4CCN(C)CC4)cn3)nc12 [Compound 9, 6′-methyl-N-(5-(4-methylpiperazin-1-yl)pyridin-2-yl)-8′H-spiro[cyclohexane-1,9′-pyrazino[1′,2′: 1,5]pyrrolo[2,3-d]pyrimidin]-2′-amine] | 3 | 3.7 | 0.024 | 2.5 | 0.096 |
| CCCNC1=NCC2(CCCCC2)n2c1cc1cnc(Nc3ccc(N4CCN(C)CC4)cn3)nc12 [Compound 3, N2′-(5-(4-methylpiperazin-1-yl)pyridin-2-yl)-N6′-propyl-8′H-spiro[cyclohexane-1,9′-pyrazino[1′,2′: 1,5]pyrrolo[2,3-d]pyrimidine]-2′,6′-diamine] | > 100 | > 100 | 1.26 | 32.5 | 0.74 |
| CO[C@H]1CC[C@@]2(CC1)CN=Cc1cc3cnc(Nc4ccc(N5CCN(C)CC5)cn4)nc3n12 [Compound 13, (1S,4S)-4-methoxy-N-(5-(4-methylpiperazin-1-yl)pyridin-2-yl)-8′H-spiro[cyclohexane-1,9′-pyrazino[1′,2′:1,5]pyrrolo[2,3-d]pyrimidin]-2′-amine] | 3 | 4 | 0.02 | 0.9 | 0.009 |
| CN1CCN(c2ccc(Nc3ncc4cc5n(c4n3)C3(CCCCC3)CN=C5Nc3ccccc3)nc2)CC1 [Compound 4, N2′-(5-(4-methylpiperazin-1-yl)pyridin-2-yl)-N6′-phenyl-8′H-spiro[cyclohexane-1,9′-pyrazino[1′,2′: 1,5]pyrrolo[2,3-d]pyrimidine]-2′,6′-diamine] | 54.9 | 24.6 | 0.061 | 1.57 | 0.027 |
